Experiments:
Assay type in all cases: cell-based
[1] = tested on: human neutrophils; test: Assay (c): Arachidonic acid release assay, A23187-challenged human neutrophils; conditions: calcium ionophore A23187 2 μM
Method: Human neutrophils are obtained in the laboratory using three different methods. One method uses leukophoresis packs from normal humans and neutrophils are isolated using the histopaque-1077 technique. The blood is centrifuged at 300×g for 10 minutes. The cell pellets are resuspended in PBS composed of 137 mM NaCI, 8.8 mM Na2HPO4, 1.5 mM KH2 PO4, 2.7 mM KCI (Dulbecco's Gibco Laboratories, Long Island, N.Y.) and layered over histopaque-1077 (Sigma, St. Louis, Mo.). The pellets are collected after centrifugation (300×g for 30 minutes) and washed once in PBS. The cell pellets are exposed briefly to deionized water to lyse any erythrocytes. The remaining cells are collected by centrifugation, suspended in PBS, counted and identified after cytospinning and staining. The final leukocyte preparation will be of greater than 95% purity and viability.
The second method isolates human neutrophils from fresh heparinized normal blood using the Histopaque-1077 technique. […] The remaining cells are collected by centrifugation, suspended in PBS, counted and identified after cytospinning and staining. […]
The third method isolates human neutrophils from freshly drawn heparinized normal blood using the Percoll technique. […] The neutrophils are suspended in PBS, counted and identified after cytospinning and staining. […]

[2] = tested on: LTC4 release by human monocytes; test: Assay (f): stimulated eicosanoid release by human monocytes, LTC4; conditions: Monocyte, 0.25 h, A23187 1 μM, 15 min
Method: (§1) Human Monocyte Isolation. Leukocyte-rich leukopaks obtained from Biological Specialties (Lansdale, Pa.) were collected from male volunteers who were not taking antiinflammatory drugs. Leukopaks were centrifuged (90×g for 15 min) twice to remove the platelet-rich plasma. The cell pellet was washed by centrifugation and resuspended in HBSS without Ca^2+ or Mg^2+. Histopaque 1077 was layered under the cell suspension and centrifuged at 400×g for 30 min to obtain the buffy coat. The interfacial buffy coat, containing monocytes and lymphocytes, was removed and saved. The buffy coat was washed twice with HBSS Without Ca^2+ or Mg^2+ by centrifugation. The cell pellet (4-6×10^8 cells/30 mls) was resuspended in iso-osmotic media (RPMI-1640, 10% heat inactivated fetal bovine serum (FBS), 0.2 mM L-glutamine, 2.5 mM HEPES) and layered over an equal volume of 46% Percol mixture (10X PBS/Percol; 9.25/0.75) and 54% iso-osmotic media and centrifuged for 30 min at 1000×g (Marshall and Roshak, Biochem. Cell Biol. 71: 331-339, 1993). The monocyte population located at the interface of the Percoll gradient was removed and washed twice in HBSS without Ca^2+ or Mg^2+.
(§2) Measurement of Stimuli-Induced Eicosanoid Release Monocytes (5×10^6 /ml) were incubated as a suspension in serum-free RPMI-1640 medium containing the vehicle DMSO (<1%) or drug for 30 min at 27° C. after which vehicle or stimuli was added for the indicated time. The stimulating agent is solubilized in DMSO and appropriate vehicle controls were included in all experiments. The amount of stimuli was chosen from the linear portion of a concentration versus product curve usually representing 60-80% maximal stimulation over the indicated incubation time at 37° C. (A23187, 1 μM,(15 min). The reaction was terminated by reduction of pH through addition of citric acid and centrifugation (10 min, 400×g, 4° C.). Cell viability was monitored before and after experiments using trypan blue exclusion. The cell-free media was decanted and stored at -70° C. until analyzed. Prostaglandin E2 and LTC4 were directly measured in cell-free media using enzyme immunoassay (EIA) kits purchased from Caymen Chemical Co. (Ann Arbor, Mich.). Sample or standard dilutions were made with appropriate media and analyzed in triplicate. Results were obtained by extrapolation from a standard curve prepared in the media and expressed as pg or ng/ml of sample.

[3] = tested on: PGE2 release by human monocytes; test: Assay (f): stimulated eicosanoid release by human monocytes, Prostaglandin E2; conditions: Monocyte, 0.25 h, A23187 1 μM, 15 min
Method: as §1, §2

IC50 [2]: 300 nM
IC50 [3]: > 30000 nM
Structure (SMILES): O=C(O)c1ccccc1Oc1ccc(C(F)(F)F)cc1NS(=O)(=O)c1cc(C(F)(F)F)cc(C(F)(F)F)c1 [Example 1, 2-[2-[3,5-Bis(trifluoromethyl)phenylsulfonamido]-4-trifluoromethylphenoxy]benzoic acid]
inhibition of arachidonic acid release [1]: positive activity

Reference: patent US5545669A, “Anti-inflammatory compounds” (priority 1994, dated 1996)
